Reference: publication PMC6929975, “A supramolecular protein chaperone for vaccine delivery” (Theranostics, 2020)
Starred links: 1 amine or outer side, 2 acyl side, 3 side chain; linkers in the order of their positions; H or OH if unused. Non-standard residues stand in square brackets, D forms with d. Residues, ends and D or L forms follow the SMILES beside them. Groups on a side chain read outwards from the residue. *: point of attachment. γGlu = O=C(O)[C@H](CCC(=O)[*:2])N[*:1]; X1 = CC(C(=O)*)c1ccc(-c2ccccc2)c(F)c1

Assays:
splenocytes = details: 80 µg/mL
[1] = Dissolution and protein-induced hydrogelation / gel stability; assay type: physicochemical; details: coassembled hydrogel with OVA, room temperature (20-25 °C)
Procedure: 2.5 mg of compounds were dispersed in endotoxin-free PBS buffer solution (pH = 7.4) at a final concentration of 0.5 wt% with sodium carbonate to adjust the final pH to 7.4. Proteins were dispersed in endotoxin-free PBS buffer solution (pH = 7.4) at a final concentration of 10 μg/μL. The proteins were then evenly dispersed in the hydrogel by vortexing. The mixtures were maintained at 37°C for half hour and hydrogel then formed. The final concentration of the protein in the hydrogel was 500 μg/mL.
We then tested the coassembly property of Comp. 1 with the model protein antigen ovalbumin (OVA). Comp. […] After adding OVA to the solution (final protein concentration = 0.05 wt%), we observed rapid hydrogelation within 10 minutes (Figure 1C). The resulting hydrogel was stable for more than 3 months at room temperature (20-25 °C). The maximum proportion of the nanofibers composed of OVA was 50% for Comp. 1 (Figure S5 and S6).

[2] = tested on: Raw 264.7 mouse macrophages; details: 80 µg/mL
ovalbumin (OVA) = target: T1, ovalbumin (OVA) (Gallus gallus, UniProt P01012); assay: Microscale thermophoresis (MST) binding to OVA; details: Monolith NT.115, NT-647-labelled protein, PBS with 0.05% Tween-20, pH 7.4, Comp. 0.25 μM to 10 mM
T1 construct: purchased InvivoGen
T1 sequence (P01012 1-386): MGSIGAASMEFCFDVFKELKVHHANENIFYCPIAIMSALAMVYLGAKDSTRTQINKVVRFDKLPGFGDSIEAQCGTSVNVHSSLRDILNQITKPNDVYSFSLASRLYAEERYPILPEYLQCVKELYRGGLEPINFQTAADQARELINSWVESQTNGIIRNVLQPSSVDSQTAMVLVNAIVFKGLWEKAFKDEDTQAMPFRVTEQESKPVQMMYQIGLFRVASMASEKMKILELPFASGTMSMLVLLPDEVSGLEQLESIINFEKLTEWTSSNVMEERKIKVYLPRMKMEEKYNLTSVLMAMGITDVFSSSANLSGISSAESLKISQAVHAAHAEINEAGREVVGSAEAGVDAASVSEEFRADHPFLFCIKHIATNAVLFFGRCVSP
Text: For the interaction experiments of fluorescent-proteins with Comp. […] 1 or 2 at 1:1 volume ratio.

[3] = Antigen release assay (OVA release from hydrogel); assay type: physicochemical; details: physically encapsulated OVA, 0.2 wt% gel, 150 μL, 30 μg OVA-RBITC, PBS pH 7.4, 37 °C, absorbance 560 nm
Procedure: The released profiles of OVA-RBITC from Vac-1 and Vac-2 in vitro were studied at 37 °C. 150 μL of Vac-1 or Vac-2 (0.2 wt%) containing 30 μg of OVA-RBITC was used for the measurement. 150 μL PBS solution (pH = 7.4) was firstly added on top of the gel, 100 μL of solution was taken out at the desired time point and 100 μL of fresh PBS solutions was added back. The absorbance of OVA-RBITC was determined at 560 nm by a microplate reader (BioTek Synergy 4) to calculate the cumulative release rate of OVA-RBITC from hydrogel vaccines.

| Compound | cell viability, splenocytes (splenocytes) | stability of the resulting hydrogel [1] | cell viability, Raw 264.7 [2] | binding affinity for OVA, in words (ovalbumin (OVA)) | cumulative OVA release within 16 hours [3] |
| --- | --- | --- | --- | --- | --- |
| CC(C(=O)NCC(=O)N[C@H](Cc1ccccc1)C(=O)N[C@H](Cc1ccccc1)C(=O)N[C@H](Cc1ccc(O)cc1)C(=O)N[C@H](CCCCNC(=O)CC[C@H](NC(=O)CC[C@H](N)C(=O)O)C(=O)O)C(N)=O)c1ccc(-c2ccccc2)c(F)c1 (some centres unmarked) [Comp. 1, Fbp-G^DF^DF^DY^DK(γE)2-NH2] (X1-G[dF][dF][dY][dK]([γGlu-γGlu])-NH2) | did not remarkably reduce the cell viability | more than 3 months | did not remarkably reduce the cell viability | – | – |
| Fbp-G^DF^DF^DY [Comp. 2] | – | – | – | no measurable binding affinity | ~100% |
